Test results published in patent US7989466B2, “Methods to inhibit or augment an inflammatory response” (Cambridge Enterprise Limited, priority 1999, dated 2011).
Like-named read-outs stand apart in the source and are kept apart here.

Experiments:
[1] = test system: MCP-1 induced THP-1 migration; test: THP-1 trans-well migration assay, MCP-1 as chemoattractant; type: cell-based, human; settings: agent with the cells in the upper compartment, n.s. = no statistically significant inhibition (p > 0.05); for EC50: read-out: ED50 versus MCP-1, inhibition of THP-1 migration
Description: (§1) To determine whether an agent inhibits a chemokine-induced activity, such as macrophage recruitment, varying amounts of the agent are mixed with cells in the presence of a known chemoattractant. For example, a range of known concentrations of an agent, e.g., a chemokine peptide, is incubated with a defined number (e.g., 10^4-10^6) of human THP-1 monocyte cells in individual wells of the top compartment of a trans-well plate. Chemokine (such as MCP-1, MIP1α, IL8 or SDF-1α), at a concentration known to cause significant migration of THP-1 cells in the trans-well migration assay, is placed in the lower compartment (FIG. 1). Cells are then incubated at 37° C. for a period sufficient to allow migration, e.g., 4 hours. After incubation, the cells are gently removed from the top of the filter with a pipette, 20 μl of 20 mM EDTA in simple PBS is added into each top well, and incubated for 20 minutes at 4° C. The filter is carefully flushed with media using a gentle flow, and removed. A standard curve consisting of a two-fold dilution series of THP-1 cells (in 29 μl) is prepared to accurately quantify the number of cells that have migrated. Migrated cells are stained with 3 μl of MTT stock dye solution which is added directly into each well (5 mg/ml in RPMI-1640 without phenol red, Sigma Chemical Co.) and incubated at 37° C. for 4 hours. The media is carefully aspirated from each well, and the converted dye is solubilized by 20 μl of DMSO. Absorbance of converted dye is measured at a wavelength of 595 nm using an ELISA plate reader. The number of migrated cells in each well is then determined by interpolation of the standard curve (see also Imai et al., J. Biol. Chem., 272, 15036 (1997)).
(§2) For this assay, THP-1 cells were maintained at a density of 4×10^5 cells per ml in RPMI-1640 supplemented with 10% fetal calf serum+20 μM 2-mercaptoethanol. Chemotaxis was induced in a 96-well disposable chemotaxis chamber fitted with a […] polycarbonate filter (PVP free, ChemoTX, Neuroprobe Inc., Cabin John). Twenty-nine μl of chemoattractant (recombinant human chemokine; 50 ng/ml, i.e., 5.9 nM) or control (100 ng/ml TGFβ) was added to the lower compartment of each well. The framed filter was aligned with the holes in the corner of the filter frame and placed over the wells. Five×10^4 THP-1 cells in 25 μl of RPMI-1640 were added to the upper compartment. Peptides were dissolved in Milli Q water and then serially diluted in culture medium. In most cases, the serially diluted peptides were added to the upper compartment of the chemotaxis chamber. The chamber was incubated at 37° C. in a humidified atmosphere of 5% CO2 for 4 hours.
(§3) After incubation, the cells were gently removed from the top of the filter with a pipette, 20 μl of 20 mM EDTA in PBS was added into each top well, and the mixture was incubated for 20 minutes at 4° C. The filter was then carefully flushed with media using a gentle flow, and removed. A standard curve was prepared to accurately quantify the number of THP-1 cells that had migrated. The curve was based on a two-fold dilution series of THP-1 cells (top standard 100,000 cells in 29 μl). Cells which had migrated, and in separate wells, the cells in the standards, were stained with 3 μl of MTT stock solution which was added directly into each well (5 mg/ml in RPMI 1640 without phenol red, Sigma Chemical Co.) and incubated at 37° C. for 4 hours. The media was carefully aspirated from each well, and the converted dye was solubilized by 20 μl of DMSO. Absorbance of converted dye was measured at a wavelength of 595 nm using an ELISA plate reader. The number of cells that had migrated in each well was determined by interpolation of the standard curve.

[2] = test system: IL8 induced THP-1 migration; test: THP-1 trans-well migration assay, IL-8 as chemoattractant; type: cell-based, human; settings: n.s. = no statistically significant inhibition (p > 0.05); for EC50: read-out: ED50 versus IL8, inhibition of THP-1 migration
Description: as §1, §2, §3

[3] = test system: TGFβ1 induced THP-1 migration; test: THP-1 trans-well migration assay, TGFβ1 as non-chemokine control; type: cell-based, human; settings: n.s. = no statistically significant inhibition (p > 0.05)
Description: Any method suitable for counting cells can be used, for example, counting with a hemocytometer, incubation of the cells with MTT (see above), or FACS analysis. A negative control assay is also performed, using TGF-β or another non-chemokine chemoattractant (e.g., IL1β or TNFα). To assess whether the agent is cytotoxic, the same concentrations of agent are incubated with THP-1 cells. Agents which 1) are not cytotoxic at levels which inhibit migration, 2) are ineffective at inhibiting the negative control-induced migration, and 3) reduce or inhibit chemokine-induced THP-1 migration, are agents which fall within the scope of the invention.
Chemotaxis was induced in a 96-well disposable chemotaxis chamber fitted with a […] polycarbonate filter (PVP free, ChemoTX, Neuroprobe Inc., Cabin John). […] The framed filter was aligned with the holes in the corner of the filter frame and placed over the wells. […] Peptides were dissolved in Milli Q water and then serially diluted in culture medium. In most cases, the serially diluted peptides were added to the upper compartment of the chemotaxis chamber. The chamber was incubated at 37° C. in a humidified atmosphere of 5% CO2 for 4 hours.
After incubation, the cells were gently removed from the top of the filter with a pipette, 20 μl of 20 mM EDTA in PBS was added into each top well, and the mixture was incubated for 20 minutes at 4° C. The filter was then carefully flushed with media using a gentle flow, and removed. […] The curve was based on a two-fold dilution series of THP-1 cells (top standard 100,000 cells in 29 μl). […] The media was carefully aspirated from each well, and the converted dye was solubilized by 20 μl of DMSO.

[4] = test system: MIP1α induced THP-1 migration; test: THP-1 trans-well migration assay, MIP1α as chemoattractant; type: cell-based, human; settings: for EC50: n.s. = no statistically significant inhibition (p > 0.05), read-out: ED50 versus MIP1α, inhibition of THP-1 migration
Description: as §1, §2, §3

[5] = test system: SDF-1α induced THP-1 migration; test: THP-1 trans-well migration assay, SDF-1α as chemoattractant; type: cell-based, human; settings: for EC50: read-out: ED50 versus SDF-1α, inhibition of THP-1 migration
Description: as §1, §2, §3

[6] = test system: chemokine-induced THP-1 migration; test: THP-1 trans-well migration assay, panel of chemokines (MCP-1, MIP1α, IL-8, SDF1α); type: cell-based, human; settings: for CC SPECIFICITY: average inhibitory ED50 versus SDF1 and IL8 divided by average inhibitory ED50 versus MCP-1 and MIP1α; for Chemokine antagonist: active against at least one of IL-8, SDF-1α, MCP-1, MIP1α
[7] = target: T1, Duffy Antigen Receptor for Chemokines (DARC) (Homo sapiens, UniProt Q16570); test: DARC binding: competition with 125I-MCP-1 on red blood cells
T1 sequence (Q16570 1-336): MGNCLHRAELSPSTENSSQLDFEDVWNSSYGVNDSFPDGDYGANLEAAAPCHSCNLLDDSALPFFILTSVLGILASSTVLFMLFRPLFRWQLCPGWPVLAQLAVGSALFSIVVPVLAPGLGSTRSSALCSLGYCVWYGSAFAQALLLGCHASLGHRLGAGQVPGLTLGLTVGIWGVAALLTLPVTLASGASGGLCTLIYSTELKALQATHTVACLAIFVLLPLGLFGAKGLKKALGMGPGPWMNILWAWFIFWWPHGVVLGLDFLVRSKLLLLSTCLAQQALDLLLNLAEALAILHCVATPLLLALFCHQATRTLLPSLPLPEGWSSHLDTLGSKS

[8] = target: T2, Recombinant human latent TGF-β1 (Homo sapiens, UniProt P01137); test: Latent TGF-β1 activation ELISA (R2X capture); type: biochemical; set-up: key: −: A minus indicates no detectable activity in the assay; +: The number of pluses is a qualitative indicating of the activity of each peptide in each assay; ++: The number of pluses is a qualitative indicating of the activity of each peptide in each assay; +++: The number of pluses is a qualitative indicating of the activity of each peptide in each assay; ++++: The number of pluses is a qualitative indicating of the activity of each peptide in each assay; +++++: The number of pluses is a qualitative indicating of the activity of each peptide in each assay; settings: test peptide at 100 nM, 37° C., 90 minutes
T2 construct: purchased R&D Systems; host or cells: CHO cells
Description: To test whether a KXK tripeptide activates TGF-beta, a direct ELISA-type assay can be used. Recombinant human latent TGF-β1 produced in CHO cells (R&D Systems) was incubated with the test activator. For example, 200 ng of latent TGF-β1 (at 20 μg/ml) was incubated with test peptide at 100 nM final concentration at 37° C. for 90 minutes. Following incubation, the TGF-β is incubated with the recombinant extracellular domain of the Type II TGF-β receptor (R2X) which binds only the active and not the latent forms of TGF-β1 (Clin. Chim. Acta, 235, 11 (1995)). For example, 1 μg of purified R2X is coated onto a Maxisorp ELISA plate well in 50 μl of 100 mM sodium carbonate for 2 hours at 4° C., and non-specific protein binding then blocked incubation with 5% sucrose 5% Tween-20 in Tris-buffered saline for 1 hour at room temperature.
The TGF-β sample is then incubated with the coated and blocked wells for 2 hours at room temperature with shaking. Wells are washed 3 times quickly with Tris-buffered saline containing 0.05% Tween-20 between each incubation. If any of the latent TGF-β1 has been activated by the incubation with test peptide, it is captured by the R2X, while remaining latent TGF-β1 is washed away. Captured active TGF-β1 is then detected by incubation with a suitable detection agent, such as a peroxidase conjugated polyclonal anti-TGF-beta antibody. For example, the wells are incubated with 200 μl of BDA19 chicken anti-TGF-β1 antibody coupled to horseradish peroxidase for 90 minutes at room temperature with shaking. Any bound peroxidase is then detected using a suitable chromogenic substrate (e.g., K-BLUE TMB substrate solution). The amount of active TGF-β generated is estimated by interpolation of a standard curve constructed using known amounts of active TGF-β1 (R&D Systems).

[9] = n.s. = no statistically significant inhibition (p > 0.05)
[10] = average inhibitory ED50 for inhibition of THP-1 migration induced by each of the chemokines, read-out: AVERAGE ED50
[11] = tripeptide at 100 μM, mean ± range, dash = no statistically significant reduction in migration
[12] = footnote f, KQK MCP-1, SEE MIP1α, KLK SDF1, KEN IL8, read-out: ED50 of a tripeptide against the one chemokine it is highly specific for

T2 sequence (P01137 30-278 limits assumed): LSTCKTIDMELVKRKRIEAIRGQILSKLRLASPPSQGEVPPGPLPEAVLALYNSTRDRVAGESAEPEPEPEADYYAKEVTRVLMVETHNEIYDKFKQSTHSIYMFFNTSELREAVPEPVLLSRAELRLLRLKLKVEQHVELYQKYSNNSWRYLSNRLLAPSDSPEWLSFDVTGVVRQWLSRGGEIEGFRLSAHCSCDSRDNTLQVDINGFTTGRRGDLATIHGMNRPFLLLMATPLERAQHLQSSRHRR

| Substance | ED50 versus TGFβ1, inhibition of THP-1 migration [3] | EC50 [4] | TGF-beta Activator [8] | Chemokine antagonist [6] | also measured |
| --- | --- | --- | --- | --- | --- |
| EICADPSQKWVQ [Ser7peptide 3] | n.s. | 6 µM |  |  | EC50 [1]: 7 µM; EC50 [2]: 3 µM; EC50 [5, 9]: 4 µM; EC50 [6, 10]: 5 µM; CC SPECIFICITY [6]: 0.5 |
| EICLDPKQKWIQ [Leu4Ile11peptide 3] | n.s. | 1 µM |  |  | EC50 ([1]; listed as Leu4Ile11peptide 3(1-12)[MCP-1]): ~1 µM; EC50 [1]: 2 µM; EC50 [2]: 3 µM; EC50 [5, 9]: 3 µM; more potent as an inhibitor of CC chemokines than peptide 3(1-12)[MCP-1] [6]: approximately 5 fold; EC50 ([6]; average inhibitory ED50 for inhibition of THP-1 migration induced by each of the chemokines, listed as Leu4Ile11peptide 3(1-12)[MCP-1], read-out: AVERAGE ED50): 2.3 µM; CC SPECIFICITY [6]: 2.0; selectivity for receptors on THP-1 cells over DARC [7]: at least 20 fold |
| EICLDPKQKWVQ [Leu4peptide 3] | n.s. | 7 µM |  |  | EC50 [1]: 8 µM; EC50 [2]: 3 µM; EC50 [5, 9]: 3 µM; increase in potency as an inhibitor of CXC chemokines compared with peptide 3(1-12)[MCP-1] [6]: approximately 4 fold; EC50 [6, 10]: 5 µM |
| KDK |  |  | − | + |  |
| KEK |  |  | − | + |  |
| KFK |  |  | ++++ | − |  |
| KGK |  |  | − | − |  |
| KIK |  |  | ++ | ++ |  |
| KKK |  |  | − | ++++ |  |
| KLK |  |  | +++ | ++++ | percentage inhibition of migration induced by SDF1α [5, 11]: 87 ± 6%; CC SPECIFICITY [6]: <0.1; EC50 [6, 12]: 0.1 to 10 µM |
| KQKWVQ [Peptide 3[7-12]] | n.s. | 5 µM |  |  | EC50 [1]: 7 µM; EC50 [2]: 6 µM; EC50 [5, 9]: 6 µM; EC50 ([6]; THP-1 migration, read-out: ED50 range, migration by all chemokines tested): 7 to 9 µM |
| KSK |  |  | − | − |  |
| KTK |  |  | − | − |  |
| KWK |  |  | − | − |  |
| KYK |  |  | +++++ | − |  |
| SEE | n.s. | 6 µM |  |  | ED50 versus MCP-1, inhibition of THP-1 migration [1]: n.s.; ED50 versus IL8, inhibition of THP-1 migration [2]: n.s.; percentage inhibition of migration induced by MIP1α [4, 11]: 65 ± 3%; ED50 versus SDF-1α, inhibition of THP-1 migration [5, 9]: n.s.; specificity for the cognate chemokine over all the other chemokines tested ([6]; KQK MCP-1, SEE MIP1-α): > 100 fold; CC SPECIFICITY [6]: >100; EC50 [6, 12]: 0.8 µM |
